# Source: US11078236B2, “Selenium-based therapies” (Burke Neurological Institute, priority 2017, dated 2021)
# “Also recorded” adds a separate entry of the source. Starred links: 1 amine or outer side, 2 acyl side, 3 side chain; linkers in the order of their positions; H or OH if unused. Positions of bridges follow the written chain, without caps; N, C: chain ends. Non-standard residues stand in square brackets, D forms with d. Residues, ends and D or L forms follow the SMILES beside them. Chains are numbered I, II in the order given. Actinocin(9to1) = Cc1c2oc3c(C)ccc(C(=O)[*:1])c3nc-2c(C(=O)[*:2])c(N)c1=O; NMeV = CN[C@H](C(=O)O)C(C)C; Sec = N[C@@H](C[SeH])C(=O)O; Sar = CNCC(=O)O
# Experiments:
# [1] = tested on: GPX4 and other selenoprotein genes; experiment: Quantitative PCR of antioxidant/selenoprotein genes in neurons; type: cell-based, mice or rats
# Method: (§1) Total RNA was prepared using the NucleoSpin RNA II kit (MACHEREYNAGEL) according to the manufacturer's protocol. Duplex real-time PCR reactions were performed with gene expression assays using 6-carboxyfluorescein-labeled probes (Applied Biosystems) for antioxidant enzymes. All expression levels were normalized to β-actin gene expression levels, which were determined with a VIC-labeled probe (Applied Biosystems). All experiments were performed using a Quant 6 Real-Time PCR System (Applied Biosystems).
# (§2) Primary cortical neurons were obtained from either embryonic (E15) CD1 mice or embryonic (E17) Sprague-Dawley rats. Briefly, cortices were dissected, homogenized, and plated in minimum essential medium containing 10% fetal bovine serum (FBS), 5% horse serum, and 1% penicillin/streptomycin in 96-well plates, 6-well plates, or 10-cm dishes. Neurons were maintained at 37° C. with 5% CO2. All experiments were started at 24 hours after plating.
# GPX4-deficient neurons = experiment: Survival of neurons with siRNA knockdown of GPX4; type: cell-based, mice or rats; conditions: 50 μM NAC, siGPX4
# Source text: Knock down of GPX4 was achieved by using lipofectamine RNAimax (Thermo-Fisher) to transfect primary cortical neurons with specific siRNA against GPX4. Three different sequences of siRNA were used separately to validate target specificity as opposed to sequence specificity. Knockdown was validated by mRNA and protein.
# primary cortical neurons [2] = experiment: In vitro ICH model: hemin-induced ferroptosis, MTT survival and Live/Dead assay; type: cell-based, mice or rats; conditions: for toxicity / therapeutic window in cultured neurons: in vitro, increasing concentrations
# Method: as §2
# Cell death was induced in primary cortical neurons and hippocampal HT22 cells by treatment with hemin ([…]; Sigma). For the neuroprotection studies, cells were treated with 80 μM hemin in the presence of sodium selenite (Sigma) diluted in water. Cell viability was analyzed 16 hours after treatment. Cells were rinsed with warm phosphate-buffered saline (PBS) and assessed by MTT assay. The fidelity of MTT assays in measuring viability was verified by calcein-AM/ethidium homodimer-1 staining (Live/Dead assay, Molecular Probes) following the manufacturer's instructions.
# [3] = tested on: GPX4 and selenoprotein mRNA in striatum; type: in vivo, mouse; conditions: ICV injection
# Method: FIG. 5A is a schematic showing ICV injection of dose dependent Se (1-5 μM) and collection of striatum 6 hours later to extract RNA for quantitative PCR.
# Male C57BL/6 mice (8 to 10 weeks of age; Charles River) were anesthetized with isoflurane (2 to 5%) and placed on a stereotaxic frame. During the procedure, the animal's body temperature was maintained at 37° C. with a homeothermic blanket. With a nanomite syringe pump (Harvard Apparatus) and a Hamilton syringe, […] of collagenase (0.075 IU; Sigma) was infused into the right striatum at a flow rate of 0.120 ml/min. Relative to the bregma point, the stereotaxic coordinates of the injection were as follows: lateral, −0.20; anteroposterior, 0.62; and dorsoventral, −0.40. In control animals, […] of saline was infused. The treatment group received sodium selenite (1-5 μM) 2 hours after collagenase infusion directly into the ventricals. The control groups received vehicle (saline) alone. The animals were randomized to sham or ICH groups. The identity of the mice that received vehicle or Se was masked to surgeons who performed the ICH. […]
# Total RNA was prepared using the NucleoSpin RNA II kit (MACHEREYNAGEL) according to the manufacturer's protocol. […] All expression levels were normalized to β-actin gene expression levels, which were determined with a VIC-labeled probe (Applied Biosystems). […]
# [4] = ICP-MS measurement of selenium levels; parameters: species or system mouse; conditions: in vitro and in vivo after Se treatment
# Method: FIG. 2M is a graph showing inductively coupled mass spectrometry (ICP-MS) measurement of selenium levels normalized to protein concentration in cortical neurons treated with 80 μM hemin and/or Se.
# FIG. 5D is a graph showing inductively coupled mass spectrometry (ICP-MS) measurement of selenium levels normalized to protein concentration following ICH and ICH+2.5 μM Se in striatum at 24 h post treatment (n=8).
# primary cortical neurons [5] = experiment: Oxidative stress-induced neuronal death: HCA-induced ferroptosis, MTT survival; type: cell-based, mice or rats; conditions: HCA 5 mM, survival at 24 h
# Method: as §2
# Primary cortical neurons and HT22 cells were exposed to 5 mM HCA (glutamate structural analog) to induce oxidative stress-induced cell death, and sodium selenite (Sigma) was applied in media. 24 hours after treatment with HCA, the cells were rinsed with warm PBS, and cell viability was assessed by MTT assay (Life Technologies) and calcein-AM/ethidium homodimer-1 staining (Live/Dead assay, Molecular Probes).
# [6] = tested on: collagenase mouse model of ICH; experiment: Collagenase-induced mouse model of ICH: behavior, fluorojade, immunofluorescence; type: in vivo
# Method: Male C57BL/6 mice (8 to 10 weeks of age; Charles River) were anesthetized with isoflurane (2 to 5%) and placed on a stereotaxic frame. During the procedure, the animal's body temperature was maintained at 37° C. with a homeothermic blanket. With a nanomite syringe pump (Harvard Apparatus) and a Hamilton syringe, […] of collagenase (0.075 IU; Sigma) was infused into the right striatum at a flow rate of 0.120 ml/min. Relative to the bregma point, the stereotaxic coordinates of the injection were as follows: lateral, −0.20; anteroposterior, 0.62; and dorsoventral, −0.40. In control animals, […] of saline was infused. […] The control groups received vehicle (saline) alone. The animals were randomized to sham or ICH groups. The identity of the mice that received vehicle or Se was masked to surgeons who performed the ICH. […] Proper postoperative care was taken until the animals recovered completely.
# The corner task assessed the integrated sensorimotor function in both stimulation of vibrissae (sensory neglect) and rearing (motor response) (See Schallert et al., Neuropharmacology 39(5): p. 777-87 (2000)). Mice were placed between two cardboard pieces forming a corner with a 30° angle. While maintaining the 30° angle, the boards were gradually moved toward the mouse until the mouse approached the corner, reared upward, and turned 180° to face the open end. The direction (left or right) in which the mouse turned around was recorded for each trial. Ten trials were performed for each mouse. The adhesive tape removal task in mice was performed as previously described. Briefly, adhesive tape was placed on the planter region of the forward paw (right and left) of mice. The time from which the tape was applied to when the mouse successfully removed it was recorded for each paw. A maximum of 300 s for each paw was allowed.
# For immunocytochemical experiments in the brain, three control mice with induced unilateral stroke and three selenium-treated mice with induced unilateral stroke were perfusion fixed with 4% PFA in PBS for 15 min. The brains were isolated and postfixed for 1 h in 4% PFA. After cryoprotection in a sucrose gradient, brain sections were cut at 30 μm.
# Free-floating brain sections were blocked for 1 h in a PBS solution containing 3% bovine serum (Sigma), and 0.5% Triton X-100 (Biorad). Primary antibodies were diluted in the same solution and applied for 12 h, followed by incubation for 1 h with the appropriate secondary antibody, conjugated to Alexa 488 (1:1000; green fluorescence, Molecular Probes) or Alexa 568 (1:1000; red fluorescence, Molecular Probes). For nuclear labeling, ToPro was added to the mixture (1:15000, far red fluorescence, Invitrogen, T3605). […]
# GPX4 mRNA = GPX4 mRNA in organs after intraperitoneal injection of peptides; type: in vivo, mouse; conditions: 12 μg/g intraperitoneal, 24 h
# Method: FIG. 69B quantifies GPX4 mRNA levels 24 h following IP injection of SelPep (4-12 μg/g; n=3) in the striatum, cortex, heart or liver.
# as §1
# [7] = 12 μg/g IP from 2 h post-ICH, daily for 7 days, from day 3, significant by day 14
compound,measurement,setting,value
"CC(=O)N[C@@H](CS)C(=O)O [NAC, N-acetylcysteine]",effect on GPX4 expression,[1]; 50 μM NAC,no effect on GPX4 mRNA levels; also recorded: without affecting GPX4 expression
same,survival of GPX4-deficient neurons,GPX4-deficient neurons,prevents cell death due to GPX4 molecular depletion; also recorded: protected GPX4-deficient neurons; also recorded: prevents cell death due to GPX4 knockdown
"O=[Se](O)O [Se, Sodium selenite]",toxicity / therapeutic window in cultured neurons,primary cortical neurons [2],parabolic dose response with a narrow therapeutic window
same,toxicity or death in mice,[3]; any concentration (1-5 μM),no toxicity or death
same,optimal Se concentration for inducing selenoprotein expression,"[3]; uninjured mice, striatum 6 h later",2.5 µM
same,selenium levels by ICP-MS,[4],significant increases in cellular selenium
CC(C)C[C@H](NC(=O)[C@H](CC(N)=O)NC(=O)[C@H](C[SeH])NC(=O)[C@H](CCCCN)NC(=O)[C@H](C[SeH])NC(=O)[C@H](CCCCN)NC(=O)[C@H](CCCNC(=N)N)NC(=O)[C@H](CCCNC(=N)N)NC(=O)[C@H](CCCNC(=N)N)NC(=O)[C@H](CCC(N)=O)NC(=O)[C@H](CCCNC(=N)N)NC(=O)[C@H](CCCNC(=N)N)NC(=O)[C@H](CCCCN)NC(=O)[C@H](CCCCN)NC(=O)[C@H](CCCNC(=N)N)NC(=O)CNC(=O)[C@@H](N)Cc1ccc(O)cc1)C(=O)N[C@@H](CC(N)=O)C(N)=O [Tat-SelPep] (H-YGRKKRRQRRRK[Sec]K[Sec]NLN-NH2),single cell analysis of cell viability and death (live/dead),"primary cortical neurons [2]; hemin 80 μM, 16 h, 1 μM peptide",prevented hemin induced ferroptosis and completely preserved cell bodies and neurites of neurons
same,protection from hemin-induced ferroptosis,"primary cortical neurons [2]; hemin 80 μM, survival at 16 h, MTT",concentration dependent protection
same,toxicity / therapeutic window in cultured neurons,primary cortical neurons [2],wide therapeutic window with no apparent toxicity
same,protection from HCA-induced ferroptosis,primary cortical neurons [5],concentration dependent protection
same,"GPX4, SeIP, TXNRD1, GPX3 and SelK mRNA","[1]; 1 μM peptide, 6 h post-treatment",induced significant increases
same,cell death measured by Fluoro-Jade staining,"[6]; 12 μg/g IP from 2 h post-ICH, daily for 7 days",reduced cell death
same,sensory neglect task,[6]; [7],improved
same,spatial neglect task,[6]; [7],improved
same,behavior outcomes in animals overexpressing mSp1,"[6]; AAV8-mSp1 in striatum, 12 μg/g IP, day 14 post-stroke",fail to demonstrate significant behavior improvements
same,"GPX4 expression in heart, liver, striatum and cortex",GPX4 mRNA,induced significant expression of GPX4
"Cc1c2oc3c(C)ccc(C(=O)N[C@@H]4C(=O)N[C@H](C(C)C)C(=O)N5CCC[C@H]5C(=O)N(C)CC(=O)N(C)[C@@H](C(C)C)C(=O)O[C@@H]4C)c3nc-2c(C(=O)N[C@@H]2C(=O)N[C@H](C(C)C)C(=O)N3CCC[C@H]3C(=O)N(C)CC(=O)N(C)[C@@H](C(C)C)C(=O)O[C@@H]2C)c(N)c1=O [actinomycin-D] (I: T[dV]P[Sar][NMeV] / II: T[dV]P[Sar][NMeV]; ester I:1-I:C, II:1-II:C; linker I:N-II:N via Actinocin(9to1))",protection against hemin toxicity induced by Se,"primary cortical neurons [2]; co-treatment with transcription inhibitor, MTT",abrogated protection; also recorded: abolished protection against hemin toxicity
same,Se-dependent increase in GPX4 mRNA,[1]; co-treatment with transcription inhibitor,inhibited Se-dependent increase in GPX4 mRNA
